In patent US9403833B2, “Carboxamide derivatives” (Novartis AG, priority 2014, dated 2016):

Target: Smurf-1 (Homo sapiens (Human), UniProt Q9HCE7)
Assay: HECT E3 ligase autoubiquitinylation TR-FRET assay (Smurf-1)
Assay type: biochemical
Settings: 8-point dose-response, 3 nM to 10 uM, 45 min incubation
Source text: To determine the HECT E3 ligase selectivity of the compounds, a panel of biochemical HECT E3 ligase autoubiquitinylation assays was employed (Smurf-1, Smurf-2, WWP1, WWP2, ITCH, Nedd4, Nedd4L and E6AP). The conjugation of ubiquitin to a protein substrate is a multistep process. In an initial ATP-requiring step, a thioester bond is formed between the carboxyl terminus of ubiquitin and an internal cystein residue of the ubiquitin-activating enzyme (E1). Activated ubiquitin is then transferred to a specific cystein residue of an ubiquitin-conjugating enzyme (E2). E2s donate ubiquitin to a HECT E3 ligase (E3) from which it is transferred to the substrate protein. HECT E3 ligases can auto-ubiquitinylate. This event is detected in the TR-FRET (Time-Resolved Fluorescence Resonance Energy Transfer) assay used in this panel. The reaction mix contains E1, E2, tagged-E3, biotin-conjugated ubiquitin, the compound and ATP in a suitable buffer and is incubated for 45 minutes to allow auto-ubiquitinylation of the E3 ligase. To measure the extent of ubiquitinylated E3 ligase by TR-FRET, the donor fluorophore Europium cryptate (Eu3+ cryptate), conjugated to streptavidin which subsequently binds to biotinylated ubiquitin, and the modified allophycocyanin XL665 (HTRF® primary acceptor fluorophore) coupled to a tag-specific antibody (HA, His or GST), which recognizes the respective E3 ligase fusion proteins, are added after the reaction is complete. When these two fluorophores are brought together by a biomolecular interaction (in this case ubiquitinylation of the E3 ligase), a portion of the energy captured by the Cryptate during excitation is released through fluorescence emission at 620 nm, while the remaining energy is transferred to XL665. This energy is then released by XL665 as specific fluorescence at 665 nm. Light at 665 nm is emitted only through FRET with Europium.
Test and reference compounds are prepared at 180× [final] in 90% DMSO, and diluted 1:3 in 90% DMSO.
For the biochemical assay panel, 50 nl of the test compounds, reference compounds and buffer/DMSO control are transferred to the respective wells of a 384-well white GREINER “SMALL VOLUME” PS plate. The assay panel is run at room temperature on a Biomek FX liquid handling workstation. To the assay plates containing 50 nl compound or control solutions in 90% DMSO, 4.5 ul of E3 ligase solution were added per well, followed by 4.5 ul of the pre-incubated E1/E2/Ub mix or the pre-diluted ubiquitin (LOW control). Plates are shaken vigorously after each addition. In this assay the compound concentrations range from 3 nM to 10 uM in an 8-point dose-response curve.
After 45 min of incubation the ubiquitinylation reactions were stopped by adding 4.5 ul 2 mM NEM, immediately followed by 4.5 ul of a detection solution including the XL665-labeled antibody and the streptavidin-coupled europium to give a total volume of 18 ul. After an incubation time of 45 min in the dark, the plates are transferred into the Pherastar fluorescence reader to measure the TR-FRET signal.

Sequence of Smurf-1 (Q9HCE7 whole entry): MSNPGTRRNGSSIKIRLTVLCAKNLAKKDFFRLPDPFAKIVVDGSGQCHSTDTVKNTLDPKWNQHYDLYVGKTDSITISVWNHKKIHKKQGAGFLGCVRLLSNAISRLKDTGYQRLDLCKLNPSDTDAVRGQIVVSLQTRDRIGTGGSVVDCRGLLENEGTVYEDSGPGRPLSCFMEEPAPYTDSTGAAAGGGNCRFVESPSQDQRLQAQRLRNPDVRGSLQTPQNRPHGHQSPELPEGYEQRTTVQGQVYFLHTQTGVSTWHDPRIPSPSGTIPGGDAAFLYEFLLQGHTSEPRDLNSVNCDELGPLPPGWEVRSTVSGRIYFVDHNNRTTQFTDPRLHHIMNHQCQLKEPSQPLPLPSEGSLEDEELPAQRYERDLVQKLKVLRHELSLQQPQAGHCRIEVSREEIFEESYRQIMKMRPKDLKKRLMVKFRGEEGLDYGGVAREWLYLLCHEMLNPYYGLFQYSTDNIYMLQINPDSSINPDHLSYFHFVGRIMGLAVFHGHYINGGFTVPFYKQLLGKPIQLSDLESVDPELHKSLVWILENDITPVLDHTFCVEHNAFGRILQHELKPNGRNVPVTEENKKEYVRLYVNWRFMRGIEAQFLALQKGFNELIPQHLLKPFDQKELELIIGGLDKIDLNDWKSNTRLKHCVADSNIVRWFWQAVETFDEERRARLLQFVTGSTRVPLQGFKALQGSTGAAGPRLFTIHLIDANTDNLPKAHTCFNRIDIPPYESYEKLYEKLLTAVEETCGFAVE

IC50 | SMILES
440 nM | COc1ccc(-n2nnc(C(=O)Nc3c(C)n(C)n(C4CCCCC4)c3=O)c2C)c(Cl)c1 [Example 1, 1-(2-Chloro-4-methoxyphenyl)-N-(2-cyclohexyl-1,5-dimethyl-3-oxo-2,3-dihydro-1H-pyrazol-4-yl)-5-methyl-1H-1,2,3-triazole-4-carboxamide]
570 nM | Cc1c(C(=O)Nc2c(C)n(C)n(C3CCCCC3)c2=O)nnn1-c1ccc(Cl)cc1Cl [Example 2, N-(2-Cyclohexyl-1,5-dimethyl-3-oxo-2,3-dihydro-1H-pyrazol-4-yl)-1-(2,4-dichlorophenyl)-5-methyl-1H-1,2,3-triazole-4-carboxamide]
890 nM | COc1ccc(-n2nnc(C(=O)Nc3c(C)n(C)n(C4CCCCC4)c3=O)c2C)c(C(F)(F)F)c1 [Example 3, N-(2-Cyclohexyl-1,5-dimethyl-3-oxo-2,3-dihydro-1H-pyrazol-4-yl)-1-(4-methoxy-2-(trifluoromethyl)phenyl)-5-methyl-1H-1,2,3-triazole-4-carboxamide]
550 nM | Cc1c(C(=O)Nc2c(C)n(C)n(C3CCCCC3)c2=O)nnn1-c1ccc(OC(F)(F)F)cc1Cl [Example 5, 1-(2-Chloro-4-(trifluoromethoxy)phenyl)-N-(2-cyclohexyl-1,5-dimethyl-3-oxo-2,3-dihydro-1H-pyrazol-4-yl)-5-methyl-1H-1,2,3-triazole-4-carboxamide]
8200 nM | Cc1c(C(=O)Nc2c(C)n(C)n(C3CCCCC3)c2=O)nnn1-c1ccc(Cl)cc1 [Example 6, 1-(4-Chlorophenyl)-N-(2-cyclohexyl-1,5-dimethyl-3-oxo-2,3-dihydro-1H-pyrazol-4-yl)-5-methyl-1H-1,2,3-triazole-4-carboxamide]
92 nM | Cc1c(C(=O)Nc2c(C)n(C)n(C3CCCCC3)c2=O)nnn1-c1ccc(C2CC2)cc1Cl [Example 10, 1-(2-Chloro-4-cyclopropylphenyl)-N-(2-cyclohexyl-1,5-dimethyl-3-oxo-2,3-dihydro-1H-pyrazol-4-yl)-5-methyl-1H-1,2,3-triazole-4-carboxamide]
98 nM | [2H]C([2H])([2H])n1c(C)c(NC(=O)c2nnn(-c3ccc(C4CC4)cc3Cl)c2C)c(=O)n1C1CCCCC1 [Example 12, 1-(2-Chloro-4-cyclopropylphenyl)-N-(2-cyclohexyl-1-methyl-d3,5-methyl-3-oxo-2,3-dihydro-1H-pyrazol-4-yl)-5-methyl-1H-1,2,3-triazole-4-carboxamide]
230 nM | Cc1c(C(=O)Nc2c(C)n(C)n(C3CCCCC3)c2=O)nnn1-c1ccc(Cl)cc1C1CC1 [Example 14, 1-(4-Chloro-2-cyclopropylphenyl)-N-(2-cyclohexyl-1,5-dimethyl-3-oxo-2,3-dihydro-1H-pyrazol-4-yl)-5-methyl-1H-1,2,3-triazole-4-carboxamide]
4500 nM | Cc1c(C(=O)Nc2c(C)n(C)n(C3CCCCC3)c2=O)nnn1-c1ccc(F)cc1C1CC1 [Example 15, N-(2-Cyclohexyl-1,5-dimethyl-3-oxo-2,3-dihydro-1H-pyrazol-4-yl)-1-(2-cyclopropyl-4-fluorophenyl)-5-methyl-1H-1,2,3-triazole-4-carboxamide]

The next lines start with the compound.

SMILES | IC50
Cc1c(C(=O)Nc2c(C)n(C)n(-c3ccccc3F)c2=O)nnn1-c1ccc(Cl)cc1Cl [Example 7, 1-(2,4-Dichlorophenyl)-N-(2-(2-fluorophenyl)-1,5-dimethyl-3-oxo-2,3-dihydro-1H-pyrazol-4-yl)-5-methyl-1H-1,2,3-triazole-4-carboxamide] | 5800 nM
Cc1c(C(=O)Nc2c(C)n(C)n(-c3ccccc3F)c2=O)nnn1-c1ccc(Cl)cc1 [Example 8, 1-(4-Chlorophenyl)-N-(2-(2-fluorophenyl)-1,5-dimethyl-3-oxo-2,3-dihydro-1H-pyrazol-4-yl)-5-methyl-1H-1,2,3-triazole-4-carboxamide] | 2800 nM
Cc1c(C(=O)Nc2c(C)n(C)n(-c3ccccc3F)c2=O)nnn1-c1ccc(OC(F)(F)F)cc1Cl [Example 9, 1-(2-Chloro-4-(trifluoromethoxy)phenyl)-N-(2-(2-fluorophenyl)-1,5-dimethyl-3-oxo-2,3-dihydro-1H-pyrazol-4-yl)-5-methyl-1H-1,2,3-triazole-4-carboxamide] | 4400 nM
Cc1c(C(=O)Nc2c(C)n(C)n(-c3ccccc3F)c2=O)nnn1-c1ccc(C2CC2)cc1Cl [Example 11, 1-(2-Chloro-4-cyclopropylphenyl)-N-(2-(2-fluorophenyl)-1,5-dimethyl-3-oxo-2,3-dihydro-1H-pyrazol-4-yl)-5-methyl-1H-1,2,3-triazole-4-carboxamide] | 1000 nM
Cc1c(C(=O)Nc2c(C)n(C)n(-c3ccccc3F)c2=O)nnn1-c1ccc(Cl)cc1C1CC1 [Example 13, 1-(4-Chloro-2-cyclopropylphenyl)-N-(2-(2-fluorophenyl)-1,5-dimethyl-3-oxo-2,3-dihydro-1H-pyrazol-4-yl)-5-methyl-1H-1,2,3-triazole-4-carboxamide] | 3300 nM
Cc1c(NC(=O)c2nnn3c2CCCc2cc(OC(F)(F)F)ccc2-3)c(=O)n(C2CCCCC2)n1C [Example 16, N-(2-Cyclohexyl-1,5-dimethyl-3-oxo-2,3-dihydro-1H-pyrazol-4-yl)-8-(trifluoromethoxy)-5,6-dihydro-4H-benzo[f][1,2,3]triazolo[1,5-a]azepine-3-carboxamide] | 55 nM
COc1ccc(-n2nnc(C(=O)Nc3c(C)n(C)n(C4CCCCC4)c3=O)c2C)cc1 [Example 17, N-(2-Cyclohexyl-1,5-dimethyl-3-oxo-2,3-dihydro-1H-pyrazol-4-yl)-1-(4-methoxyphenyl)-5-methyl-1H-1,2,3-triazole-4-carboxamide] | 3100 nM
